# Laboratory results from US12454529B2, “Piperazine cyclic ureas” (SIRONAX LTD., priority 2020, dated 2025).
# pEC50: −log10 of the molar value.
# Tested on: HT-29 cells
# Test: HT-29 cell necrosis/necroptosis inhibition (TNF-α + SMAC mimetic + zVAD-FMK; CellTiter-Glo cell viability)
# Type: cell-based
# Conditions: Homo sapiens; HT-29 cells, TNF-α 10 ng/ml + SMAC mimetic 6 μM + zVAD-FMK 10 μM, 20 hours; geometric mean, 10 points in duplicate; read-out: EC50 (Cell activity; Necrosis/Necroptosis Inhibitory Activity, Compounds 1-142)
# Method: Compounds 1-319 (denoted as Compound Nos. 1 through 319 in Table 3 and 4) of the disclosure were tested for binding and cellular RIP1 inhibitory activity following the experimental procedures described below.
# • Cell line: HT-29 (ATCC® HTB-38™) • Culture medium: McCOY's 5A, Gibco, Cat No. 16600-082 • FBS, Gibco, Cat No. 10099-141C • Trypsin: Gibco, Cat No. 25200-056 • DMSO: Sigma, Cat No. 67-68-5, 1L • Assay plate: Corning #3903 • Compound dilution plate: Corning #3357 • Inducers: TNFα, GenScript, Cat No. Z01001-50, • SmacM, Cat. No., HY-15989, MedChemExpress (MCE) • Z_VAD FMK, TargetMol, T6013 • Cell Titer-Glo® Luminescent Cell Viability Assay Kit: Promega, Cat No. G7573 • EnVision: PerkinElmer, 2105-0010 Methods Cell Seeding
# 1. HT-29 cells were checked every day to make sure that they were healthy and growing as expected. They were subjected to sub-culturing when they were approximately 80% confluent.
# 2. The culture medium, McCOY's 5A medium (Gibco, Cat No. 16600-082) with 10% fetal bovine serum or FBS (Gibco, Cat No. 10099-141C), was pre-warmed in a 37° C. water bath for at least 30 min.
# 3. When the cells had reached a desired level of confluency of 80% in a T75 flask, the medium was aspirated, and the cells were washed with warm phosphate buffered saline or PBS two times.
# 4. 2-3 ml fresh warm trypsin (Gibco, Cat No. 25200-056) solution was added to the washed cells. The flask with the cells was transferred to a 37° C. incubator.
# 5. After 5 minutes, the side of the flask was tapped, and the flask was examined under a microscope for detachment of the cells to the flask. If necessary, the cells were kept in the incubator for an additional 5-10 minutes, with occasional tapping, until lifting was complete.
# 6. The trypsin reaction was neutralized by transferring 6-9 ml cell culture medium to sterile 15 ml conical tubes, and by centrifuging the cell culture at 300×g for 7 minutes to pellet the cells (supernatant decanted).
# 7. The cells were resuspended in fresh cell culture medium and the cell counting was performed using a hemocytometer.
# 8. 100 μl of the resuspended cell culture medium containing ˜5,000 cells were transferred into each well of the sterile 96-well cell culture plate (Corning 3903) and cultured overnight at 37° C. with 5% CO2.
# Compound Titration and Treatment
# 1. All test compounds were dissolved in DMSO (Dimethyl sulfoxide) to create a 20 mM stock.
# 2. 3 μl of each compound 20 mM stock was mixed with 27 μl DMSO, and the compound solution was further diluted at a titration ratio of 1:3 (20 μl compound solution+40 μl DMSO) till the 10 points end.
# 3. All culture medium was removed from assay plates filled with HT-29 cell cultures. The cells were then washed with 1 PBS, and resuspended in fresh, FBS-free McCOY's 5A medium containing a cocktail of TNF-α (10 ng/ml), a SMAC mimetic compound (6 μM) and Z-VAD-fluoromethylketone or zVAD-FMK (10 μM) to stimulate the HT-29 cells to increase RIP1 kinase levels and necroptosis.
# 4. 0.5 μL of the diluted compound solution was added to the corresponding 96-well assay plates.
# 5. The assay plates were incubated for 20 hours at 37° C. with 5% CO2.
# 1. The CellTiter-Glo® Luminescent Cell Viability Assay was employed to detect the ATP levels of viable HT-29 cells.
# 2. The CellTiter-Glo® buffer and the lyophilized substrate were equilibrated to room temperature prior to use.
# 3. The CellTiter-Glo® substrate was resuspended with CellTiter-Glo® buffer, then mixed by gently vortexing to obtain a homogeneous solution.
# 4. 20 μl the enzyme/substrate mixture was transferred by multi-channel pipetting into 96-well assay plates.
# 5. The assay plates were placed on an orbital shaker and the contents were shaken for 3 minutes to induce cell lysis.
# 6. The assay plates were incubated at room temperature for 10 minutes to stabilize the luminescent signal.
# 7. The luminescence signals were read and recorded with EnVision.
# 8. The geometric mean EC50 values were calculated from 10 points response dose with duplicates. In
row,SMILES,pEC50
1,"Cc1nn(CC(N)=O)c(C)c1-c1nc(N2CCN(C(=O)N3N=CC[C@H]3c3cc(F)cc(F)c3)CC2)ncc1F [Compound 119, (S)-2-(4-(2-(4-(5-(3,5-difluorophenyl)-4,5-dihydro-1H-pyrazole-1-carbonyl)piperazin-1-yl)-5-fluoropyrimidin-4-yl)-3,5-dimethyl-1H-pyrazol-1-yl)acetamide]",7.00 to 10.00
2,"Cc1nn(CC2CC2)c(C)c1-c1nc(N2CCN(C(=O)N3N=CC[C@H]3c3cc(F)cc(F)c3)CC2)ncc1F [Compound 121, (S)-(4-(4-(1-(cyclopropylmethyl)-3,5-dimethyl-1H-pyrazol-4-yl)fluoropyrimidin-2-yl)piperazin-1-yl)(5-(3,5-difluorophenyl)-4,5-dihydro-1H-pyrazol-1-yl)methanone]",7.00 to 10.00
3,"O=C(N1CCN(c2nccc(-c3ccc[nH]3)n2)CC1)N1N=CC[C@H]1c1cc(F)cc(F)c1 [Compound 6, (S)-(4-(4-(1H-pyrrol-2-yl)pyrimidin-2-yl)piperazin-1-yl)(5-(3,5-difluorophenyl)-4,5-dihydro-1H-pyrazol-1-yl)methanone]",7.00 to 10.00
4,"Cc1cnn(C)c1-c1nc(N2CCN(C(=O)N3N=CC[C@H]3c3cc(F)cc(F)c3)CC2)ncc1F [Compound 61, (S)-(5-(3,5-difluorophenyl)-4,5-dihydro-1H-pyrazol-1-yl)(4-(4-(1,4-dimethyl-1H-pyrazol-5-yl)-5-fluoropyrimidin-2-yl)piperazin-1-yl)methanone]",7.00 to 10.00
5,Cc1nc(C)n(-c2nc(N3CCN(C(=O)N4N=CC[C@H]4c4cc(F)cc(F)c4)CC3)ncc2F)n1 [Compound 46],7.00 to 10.00
6,"Cc1ncc(-c2nc(N3CCN(C(=O)N4N=CC[C@H]4c4cc(F)cc(C#N)c4)CC3)ncc2F)s1 [Compound 57, (S)-3-fluoro-5-(1-(4-(5-fluoro-4-(2-methylthiazol-5-yl)pyrimidin-2-yl)piperazine-1-carbonyl)-4,5-dihydro-1H-pyrazol-5-yl)benzonitrile]",7.00 to 10.00
7,"Cc1nc(C)n(-c2nc(N3CCN(C(=O)N4N=CC[C@H]4c4cc(F)cc(C#N)c4)CC3)ncc2F)n1 [Compound 47, (S)-3-(1-(4-(4-(3,5-dimethyl-1H-1,2,4-triazol-1-yl)-5-fluoropyrimidin-2-yl)piperazine-1-carbonyl)-4,5-dihydro-1H-pyrazol-5-yl)-5-fluorobenzonitrile]",7.00 to 10.00
8,"O=C(N1CCN(c2ncc(F)c(-c3ccc[nH]c3=O)n2)CC1)N1N=CC[C@H]1c1cc(F)cc(F)c1 [Compound 87, (S)-3-(2-(4-(5-(3,5-difluorophenyl)-4,5-dihydro-1H-pyrazole-1-carbonyl)piperazin-1-yl)-5-fluoropyrimidin-4-yl)pyridin-2(1H)-one]",7.00 to 10.00
9,"Cc1nc(C)n(-c2ccnc(N3CCN(C(=O)N4N=CC[C@H]4c4cc(F)cc(F)c4)CC3)n2)n1 [Compound 100, (S)-(5-(3,5-difluorophenyl)-4,5-dihydro-1H-pyrazol-1-yl)(4-(4-(3,5-dimethyl-1H-1,2,4-triazol-1-yl)pyrimidin-2-yl)piperazin-1-yl)methanone]",7.00 to 10.00
10,"Cc1n[nH]nc1-c1nc(N2CCN(C(=O)N3N=CC[C@H]3c3cc(F)cc(C#N)c3)CC2)ncc1F [Compound 80, (S)-3-fluoro-5-(1-(4-(5-fluoro-4-(5-methyl-2H-1,2,3-triazol-4-yl)pyrimidin-2-yl)piperazine-1-carbonyl)-4,5-dihydro-1H-pyrazol-5-yl)benzonitrile]",7.00 to 10.00

# Same assay, conditions: Homo sapiens; HT-29 cells, TNF-α 10 ng/ml + SMAC mimetic 6 μM + zVAD-FMK 10 μM, 20 hours; geometric mean, 10 points in duplicate; read-out: EC50 (Cell activity; Necrosis/Necroptosis Inhibitory Activity, Compounds 143-323)
row,SMILES,pEC50
1,Cc1nnc(-c2nc(N3CCN(C(=O)N4N=CCC4c4ncccc4Cl)CC3)ncc2F)s1 (stereo not drawn) [Compound 210],7.00 to 10.00
2,"Cc1cnc(C2CC=NN2C(=O)N2CCN(c3ncc(F)c(-c4cnn(C)n4)n3)CC2)s1 (stereo not drawn) [Compound 317, (4-(5-fluoro-4-(2-methyl-2H-1,2,3-triazol-4-yl)pyrimidin-2-yl)piperazin-1-yl)(5-(5-methylthiazol-2-yl)-4,5-dihydro-1H-pyrazol-1-yl)methanone]",6.00 to 7.00
3,"Cc1nc(C)n(-c2nc(N3CCN(C(=O)N4N=CCC4c4ncccc4Cl)CC3)ncc2Cl)n1 (stereo not drawn) [Compound 220, (4-(5-chloro-4-(3,5-dimethyl-1H-1,2,4-triazol-1-yl)pyrimidin-2-yl)piperazin-1-yl)(5-(3-chloropyridin-2-yl)-4,5-dihydro-1H-pyrazol-1-yl)methanone]",7.00 to 10.00
4,"Cc1[nH]nc(CO)c1-c1nc(N2CCN(C(=O)N3N=CC[C@H]3c3cc(F)cc(C#N)c3)CC2)ncc1F [Compound 163, (S)-3-fluoro-5-(1-(4-(5-fluoro-4-(3-(hydroxymethyl)-5-methyl-1H-pyrazol-4-yl)pyrimidin-2-yl)piperazine-1-carbonyl)-4,5-dihydro-1H-pyrazol-5-yl)benzonitrile]",7.00 to 10.00
5,"Cn1nc(CF)nc1-c1ccnc(N2CCN(C(=O)N3N=CC[C@H]3c3cc(F)cc(C#N)c3)CC2)n1 [Compound 169, (S)-3-fluoro-5-(1-(4-(4-(3-(fluoromethyl)-1-methyl-1H-1,2,4-triazol-5-yl)pyrimidin-2-yl)piperazine-1-carbonyl)-4,5-dihydro-1H-pyrazol-5-yl)benzonitrile]",7.00 to 10.00
6,"Cc1nn(-c2ccnc(N3CCN(C(=O)N4N=CC[C@H]4c4cncc(F)c4)CC3)n2)c(C)c1C#N [Compound 283, (S)-1-(2-(4-(5-(5-fluoropyridin-3-yl)-4,5-dihydro-1H-pyrazole-1-carbonyl)piperazin-1-yl)pyrimidin-4-yl)-3,5-dimethyl-1H-pyrazole-4-carbonitrile]",7.00 to 10.00
7,"Cc1cnn(C)c1-c1cc(N2CCN(C(=O)N3N=CCC3c3cncs3)CC2)c(F)cn1 (stereo not drawn) [Compound 293, (4-(2-(1,4-dimethyl-1H-pyrazol-5-yl)-5-fluoropyridin-4-yl)piperazin-1-yl)(5-(thiazol-5-yl)-4,5-dihydro-1H-pyrazol-1-yl)methanone]",7.00 to 10.00
8,Cc1nc(C(=O)O)nn1-c1nc(N2CCN(C(=O)N3N=CC[C@H]3c3cc(F)cc(C#N)c3)CC2)ncc1F [Compound 190],5.00 to 6.00
9,"Cc1nc(C)n(-c2nc(N3CCN(C(=O)N4N=CC[C@H]4c4cc(F)cc(C#N)c4)CC3)c(F)cc2F)n1 [Compound 233, (S)-3-(1-(4-(6-(3,5-dimethyl-1H-1,2,4-triazol-1-yl)-3,5-difluoropyridin-2-yl)piperazine-1-carbonyl)-4,5-dihydro-1H-pyrazol-5-yl)-5-fluorobenzonitrile]",7.00 to 10.00
10,"Cc1nn(-c2ccnc(N3CCN(C(=O)N4N=CC[C@H]4c4cc(F)cc(C#N)c4)CC3)n2)c(C)c1C(N)=O [Compound 276, (S)-1-(2-(4-(5-(3-cyano-5-fluorophenyl)-4,5-dihydro-1H-pyrazole-1-carbonyl)piperazin-1-yl)pyrimidin-4-yl)-3,5-dimethyl-1H-pyrazole-4-carboxamide]",7.00 to 10.00
11,"Cn1nc(C(N)=O)nc1-c1nc(N2CCN(C(=O)N3N=CCC3c3cc(F)cc(F)c3)CC2)ncc1F (stereo not drawn) [Compound 225, 5-(2-(4-(5-(3,5-difluorophenyl)-4,5-dihydro-1H-pyrazole-1-carbonyl)piperazin-1-yl)-5-fluoropyrimidin-4-yl)-1-methyl-1H-1,2,4-triazole-3-carboxamide]",7.00 to 10.00
